The values that follow come from patent US8034811B2, “Hydroxamic acid esters and pharmaceutical use thereof” (Leo Pharma A/S, priority 2003, dated 2011).

T1 sequence (P35968 794-1356 limits assumed): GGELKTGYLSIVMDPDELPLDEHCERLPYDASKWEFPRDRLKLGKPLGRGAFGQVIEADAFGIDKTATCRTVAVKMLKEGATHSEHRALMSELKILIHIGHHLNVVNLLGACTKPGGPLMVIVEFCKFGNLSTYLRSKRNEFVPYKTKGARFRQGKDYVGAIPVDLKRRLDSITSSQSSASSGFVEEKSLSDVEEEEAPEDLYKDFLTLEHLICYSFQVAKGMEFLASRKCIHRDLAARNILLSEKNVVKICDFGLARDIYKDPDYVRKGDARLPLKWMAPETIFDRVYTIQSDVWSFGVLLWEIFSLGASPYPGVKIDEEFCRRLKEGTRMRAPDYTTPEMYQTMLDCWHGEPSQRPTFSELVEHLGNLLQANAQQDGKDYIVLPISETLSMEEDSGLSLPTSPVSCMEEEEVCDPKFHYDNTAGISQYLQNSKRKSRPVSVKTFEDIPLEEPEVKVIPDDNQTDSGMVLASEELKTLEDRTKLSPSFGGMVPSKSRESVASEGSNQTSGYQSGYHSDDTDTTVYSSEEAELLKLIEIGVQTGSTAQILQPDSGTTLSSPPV

The assay has as its target T1, human intracellular domain of KDR (VEGF Receptor-2) (Homo sapiens, UniProt P35968).
T1 construct: A fusion protein containing the intracellular domain (amino acids 793 to 1357) of the KDR and N-terminally tagged to GST; made in house; host or cells: Sf9 insect cells (baculovirus, pDEST20) for GST-KDR-cyt; E. coli BL21 (pGEX-4T-1) for GST-PLCγ
Briefly: In vitro KDR kinase assay. The class given is biochemical. As to conditions: IC50 as molar concentration; GST-KDR-cyt, substrate phospholipase Cγ, ATP 100 μM, 30 min room temperature, time-resolved fluorometry. In a few lines:
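Sf9-expressed, constitutively active human KDR intracellular domain, diluted 3000–3500 fold, incubated 30 min at room temperature with 100 μM ATP on phospholipase Cγ-coated wells in TBS pH 7.4 with Mg acetate, compounds up to 10 μM, 0.1% DMSO max. Phosphotyrosine detected by Eu-PY-20 time-resolved fluorescence; IC50 by linear interpolation around 50% inhibition.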
For `COc1cc(C#N)ccc1CONC(=O)c1cccnc1NCc1ccncc1` [Compound 162, N-(4-Cyano-2-methoxy-benzyloxy)-2-[(pyridin-4-ylmethyl)-amino]-nicotinamide], inhibition was half-maximal at 0.0631 µM (IC50). Next, `O=C(NOCC1CCCC1)c1cccnc1NCc1ccncc1` [Compound 164, N-Cyclopentylmethoxy-2-[(pyridin-4-ylmethyl)-amino]-nicotinamide]: 0.00794 µM; `O=C(NCCCO)c1cc(CNc2ccccc2C(=O)NOCC2CCCC2)ccc1F` [Compound 188, 5-[(2-Cyclopentylmethoxycarbamoyl-phenylamino)-methyl]-2-fluoro-N-(3-hydroxypropyl)-benzamide]: 0.0794 µM; `O=C(NOCc1ccc(F)cc1)c1ccccc1NCc1ccc2c(c1)CCO2` [Compound 195, 2-[(2,3-Dihydro-benzofuran-5-ylmethyl)-amino]-N-(4-fluoro-benzyloxy)-benzamide]: 0.0794 µM.

Consider `N#Cc1ccc(CONC(=O)c2ccccc2NCc2ccc3c(c2)CCO3)cc1` [Compound 196, N-(4-Cyano-benzyloxy)-2-[(2,3-dihydro-benzofuran-5-ylmethyl)-amino]-benzamide], for which the IC50 (commonly the concentration that gives 50% inhibition) is 0.0794 µM. In the case of `O=C(NOCc1ccccc1)c1ccccc1NCc1ccc2occc2c1` [Compound 198, 2-[(Benzofuran-5-ylmethyl)-amino]-N-benzyloxy-benzamide] it was 0.0631 µM; in that of `O=C(NOCc1ccc(F)cc1)c1ccccc1NCc1ccc2occc2c1` [Compound 199, 2-[(Benzofuran-5-ylmethyl)-amino]-N-(4-fluoro-benzyloxy)-benzamide], 0.0501 µM; in that of `O=C(NOCc1ccc(F)cc1)c1ccccc1NCc1ccnc(Br)c1` [Compound 204, 2-[(2-Bromo-pyridin-4-ylmethyl)-amino]-N-(4-fluoro-benzyloxy)benzamide], 0.0631 µM. Next, `N#Cc1ccc(CONC(=O)c2ccccc2NCc2ccnc(N)c2)cc1` [Compound 206, 2-[(2-Amino-pyridin-4-ylmethyl)-amino]-N-(4-cyano-benzyloxy)-benzamide]: 0.0398 µM; `O=C(NOCc1ccc(F)cc1)c1ccccc1NCc1ccnc(N2CCOCC2)c1` [Compound 207, N-(4-Fluoro-benzyloxy)-2-[(2-morpholin-4-yl-pyridin-4-ylmethyl)-amino]-benzamide]: 0.0794 µM; `CS(=O)(=O)Nc1cc(CNc2ccccc2C(=O)NOCC2CCCC2)ccn1` [Compound 208, N-Cyclopentylmethoxy-2-[(2-methanesulfonylamino-pyridin-4-ylmethyl)-amino]-benzamide]: 0.0794 µM. Next, `CNC(=O)Nc1cc(CNc2ccccc2C(=O)NOCc2ccc(C#N)cc2)ccn1` [Compound 210, N-(4-Cyano-benzyloxy)-2-{[2-(3-methyl-ureido)-pyridin-4-ylmethyl]-amino}-benzamide]: 0.00794 µM. Turning to `CNC(=O)Nc1cc(CNc2ccccc2C(=O)NOCc2ccc(C#N)cc2OC)ccn1` [Compound 211, N-(4-Cyano-2-methoxy-benzyloxy)-2-{[2-(3-methyl-ureido)-pyridin-4-ylmethyl]-amino}-benzamide], half-maximal inhibition (IC50) was put at 0.02 µM. In the case of `CNC(=O)Nc1cc(CNc2ccccc2C(=O)NOCC2CCCC2)ccn1` [Compound 212, N-Cyclopentylmethoxy-2-{[2-(3-methyl-ureido)-pyridin-4-ylmethyl]-amino}-benzamide] it was 0.01 µM; in that of `CNC(=O)Nc1cc(CNc2ccccc2C(=O)NOCc2ccc(C)c(F)c2F)ccn1` [Compound 213, N-(2,3-Difluoro-4-methyl-benzyloxy)-2-{[2-(3-methyl-ureido)-pyridin-4-ylmethyl]-amino}-benzamide], 0.00794 µM. In the case of `CCOC(=O)CNC(=O)Nc1cc(CNc2ccccc2C(=O)NOCc2ccc(C#N)cc2)ccn1` [compound 214] it was 0.0501 µM; in that of `CCOC(=O)CNC(=O)Nc1cc(CNc2ccccc2C(=O)NOCC2CCCC2)ccn1` [compound 215], 0.0631 µM. In the case of `N#Cc1ccc(CONC(=O)c2ccccc2NCc2ccnc(NC(=O)NCC(=O)O)c2)cc1` [compound 216] it was 0.01 µM.

`O=C(O)CNC(=O)Nc1cc(CNc2ccccc2C(=O)NOCC2CCCC2)ccn1` [compound 217] gave an IC50 of 0.00794 µM. In the case of `C=C(C)C(=O)OCCNC(=O)Nc1cc(CNc2ccccc2C(=O)NOCC2CCCC2)ccn1` [compound 219] it was 0.0398 µM; in that of `N#Cc1ccc(CONC(=O)c2ccccc2NCc2ccnc(NC(=O)NCCO)c2)cc1` [compound 220], 0.00794 µM. Next, `O=C(NCCO)Nc1cc(CNc2ccccc2C(=O)NOCC2CCCC2)ccn1` [compound 221]: 0.00794 µM. `CC(=O)OCC(=O)Nc1cc(CNc2ccccc2C(=O)NOCc2ccc(C#N)cc2)ccn1` [compound 222]: the IC50 was 0.00631 µM.

In turn, `CC(=O)OCC(=O)Nc1cc(CNc2ccccc2C(=O)NOCC2CCCC2)ccn1` [compound 223] had an IC50 of 0.0316 µM.

`N#Cc1ccc(CONC(=O)c2ccccc2NCc2ccnc(NC(=O)CO)c2)cc1` [compound 224] had an IC50 of 0.00631 µM. Next, `CCOC(=O)Nc1cc(CNc2ccccc2C(=O)NOCc2ccc(C#N)cc2)ccn1` [compound 225]: 0.00794 µM; `N#Cc1ccc(CONC(=O)c2ccccc2NCc2ccnc(NC(=O)C3CC3)c2)cc1` [compound 226]: 0.00631 µM. Molecule `O=C(NOCC1CCCC1)c1ccccc1NCc1ccnc(NC(=O)C2CC2)c1` [compound 227] gave an IC50 of 0.00501 µM. `O=C(CC1NC(=O)NC1=O)Nc1cc(CNc2ccccc2C(=O)NOCC2CCCC2)ccn1` (stereo not drawn) [compound 228] showed an IC50 of 0.00631 µM.

Take `Nc1cc(CNc2ccccc2C(=O)NOCC2CCCC2)ccn1` [compound 229]: the IC50 was 0.00794 µM. In the case of `O=C(NOCc1ccccc1)c1ccccc1NCc1ccnc2ccccc12` [compound 230] it was 0.0251 µM. Next, `N#Cc1ccc(CONC(=O)c2ccccc2NCc2ccnc3ccccc23)cc1` [compound 231]: 0.0398 µM.

Molecule `Cc1nc(CONC(=O)c2ccccc2NCc2ccnc3ccccc23)cs1` [compound 232] gave an IC50 of 0.02 µM.

Molecule `O=C(NOCC1CCCC1)c1ccccc1NCc1ccnc2ccccc12` [compound 233] showed an IC50 of 0.01 µM.

Regarding `O=C(NOCC1CCOCC1)c1ccccc1NCc1ccnc2ccccc12` [compound 234], the IC50 was 0.0631 µM. In the case of `COc1ccc(CNc2ccccc2C(=O)NOCc2ccc(C#N)cc2OC)cn1` [compound 235] it was 0.0631 µM; in that of `COc1ccc(CNc2ccccc2C(=O)NOCc2ccccc2)cn1` [compound 236], 0.0794 µM. Next, `COc1ccc(CNc2ccccc2C(=O)NOCc2ccc(C#N)cc2)cn1` [compound 237]: 0.0794 µM; `CC(Nc1ccccc1C(=O)NOCc1ccc(C#N)cc1)c1ccncc1` (stereo not drawn) [compound 244]: 0.0631 µM; `CNC(=O)Nc1cc(CNc2ccccc2C(=O)NOCC2CCCCO2)ccn1` (stereo not drawn) [compound 245]: 0.00794 µM.

Molecule `COCC(=O)Nc1cc(CNc2ccccc2C(=O)NOCC2CCCC2)ccn1` [compound 246] showed an IC50 of 0.02 µM. In the case of `N#Cc1ccc(CONC(=O)c2ccccc2NCc2ccc(=O)[nH]c2)cc1` [compound 247] it was 0.0501 µM.
